Melting point data for 37 compounds are collected here from a melting point compilation (Tetko et al.; mined from patent text by program, amines drawn as free bases though some values may be those of a salt).

The structures appear in SMILES notation. Bounds are passed on as bounds.

On to `CN1C(=O)c2c(Cl)cc(Cl)c(Cl)c2C1=O`, for which the melting point (as a rule, the temperature of the solid-liquid transition) lay in the range of 166 to 168 °C.
In the case of `CCCCNC(=O)N1CC(Oc2ccc(C(F)(F)F)cc2)C1` it was 132 to 134 °C; in that of `Cc1ccc(NC(=O)OCc2ccco2)cc1NC(=O)OCc1ccco1`, 154 to 156 °C.
Consider `Oc1ccc(Oc2ccc(Cl)cc2)cc1`, for which the melting point fell in the range of 85 to 86 °C.
In the case of `N=C(N)c1ccc(O)c([N+](=O)[O-])c1` it was over 240 °C; in that of `O=C(O)C1CCSc2ccc(Cl)cc21` (configuration not stated), 139 to 150 °C; in that of `O=C(c1ccc(Br)cc1Cl)c1cccc2c1Nc1ncccc1CN2`, 165 to 168 °C.
In the case of `O=C1c2ccccc2C(Nc2ccccc2)N1CCCN1CC=C(c2ccccc2)CC1` (configuration not stated) it was 119 °C.
Consider `Cc1cc(C)n(C)c(=O)c1C(=O)O`, for which the melting point fell in the range of 200 to 204 °C.
To `CC(C)(C)OC(=O)c1ncn2c1[C@@H]1CCCN1C(=O)c1c-2cccc1C(F)(F)F` belongs 201 to 203 °C; to `O=C1c2ccccc2-c2cc(O)cc3cccc1c23`, 297 to 298 °C.
In the case of `CC(=O)N(C)C(CCl)C(=O)O` (configuration not stated) it was 104 °C; in that of `CC(C)(C)c1cccc(C(=O)O)c1`, 96 to 97 °C; in that of `Cc1c(CC(=O)O)c(=O)oc2cc(O)c(O)c([N+](=O)[O-])c12`, over 350 °C.
In the case of `CCN1CCCC1CNC(=O)c1c(C)[nH]c(C=O)c1C` (configuration not stated) it was 166 to 169 °C; in that of `O=C(/C=C/c1ccc(Sc2ccccc2[N+](=O)[O-])c(Cl)c1Cl)N1CCOCC1`, 210 to 213 °C.
Turning to `CCCc1nc2cc3c(cc2[nH]1)NC(=O)C3(C)C(=O)OCC` (configuration not stated), the melting point was in the range of 258 to 261 °C.
Consider `CCCCC(=N)NC(=O)Nc1cccc([N+](=O)[O-])c1`, for which the melting point was in the range of 161 to 163 °C.
Regarding `[N-]=[N+]=NCCCC(=O)N1CCc2c(OC(CO)CO)ccc([N+](=O)[O-])c21`, the melting point lay in the range of 78 to 79 °C.
To `CC(=O)NC(C)C1=NN(Cc2ccccc2)C(C)NC1=O` (configuration not stated) belongs 196 to 203 °C; to `COc1cc(OC)cc(S(=O)(=O)c2ccc(N)cc2)c1`, 128 to 130 °C.
In the case of `COc1ccc(Nc2cc(C)nc(SCC(N)=NO)n2)cc1`, the melting point was 189 to 191 °C.
To `O=c1[nH]c2ccc(N3CCN(Cc4ccccc4)CC3)cc2c(=O)o1` belongs 235 °C.
In the case of `COC(=O)COc1cccc2c(CCN=[N+]=[N-])c(C)oc12` it was 88 to 90 °C; in that of `CCOC(=O)c1cc(C(=O)Nc2ccccc2OC(C)=O)cc(Cl)c1O`, 163 to 166 °C; in that of `CCOC(=O)COC1CCC2C3CCC4NC(=O)CCC4(C)C3CCC12C` (configuration not stated), 170 to 172 °C.
To `CCOC(=O)CCc1ccc2c(c1)CC(NC(=O)OC(C)(C)C)CC2` (configuration not stated) belongs 100 to 102 °C.
As for `CC(=O)c1cc2c(s1)C(N1CCCC1=O)C(O)C(C)(C)O2` (configuration not stated), the melting point was in the range of 102 to 106 °C.
To `Cn1c(C(N)=O)c(-c2ccc(F)cc2)c2cccnc2c1=O` belongs 329 to 330 °C; to `C=CCCCCCCCCCCCCCCCCCCCCO`, 62 to 64 °C.
Consider `CCCc1c(OCC(O)COc2cccc(NC(=O)c3nnn[nH]3)c2C#N)ccc(C(C)=O)c1O` (configuration not stated), for which the melting point lay within 117 to 119 °C.
In the case of `CC(C)C(C)(N)C(N)=S` (configuration not stated) it was 98 to 100 °C; in that of `CCC(=O)Oc1cccc2c1C(=O)c1c(O)cccc1C2C(=O)CC` (configuration not stated), 125 °C; in that of `CCCOc1cc(OC)c2c(c1)C(=O)c1cccc(OC(C)C)c1-2`, 114 to 116 °C.
`CCCc1nn(C)c2c(=O)[nH]c(-c3ccc(OC)c(OC)c3)nc12` displayed a melting point of 210 to 212 °C.
To `CC(=O)NC[C@H]1CN(c2cc(F)c(N3CCN(C(=O)COCc4ccccc4)CC3)c(F)c2)C(=O)O1` belongs 172 to 173 °C; to `CC(C)c1cccc(C(C)C)c1NC(=O)NCC1(Nc2ccc(I)cc2)CCCC1`, 176 °C.
